Converted amounts (≈) assume the structure as drawn.
Assays:
Type in all cases: cell-based
Candida tropicalis [1] = assay: MIC determination, micro-dilution method; details: read-out: Minimum Inhibitory Concentration
Excerpt: (§1) Mouth microbial representatives including unicellular fungi; Candida albicans (RCMB 05382), Candida glabrata (RCMBA 05386), Candida parapsilosis (RCMBA 06002), Candida tropicalis (RCMB 05384), Gram-positive bacteria; Lactobacillus acidophilus (RCMBA 4267), Streptococcus gordonii (RCMBA 2004), Streptococcus mutans (RCMBA 4131), and Gram-negative bacteria; Pseudomonas aeruginosa (RCMBA 1002) were obtained from the Regional Center for Mycology and Biotechnology (RCMB), Al-Azhar University, Cairo, Egypt, as test organisms.
(§2) The minimum inhibitory concentration (MIC) was determined by micro-dilution method using serially diluted (2 folds) extract and isolated compound. MIC of the extract was determined by dilution of extract and isolated compound of concentrations of 0.0-1000 µg/ml. Equal volume of each extract and nutrient broth were mixed in a test tube. Specifically 0.1 ml of standardized inoculum (1-2 X 10^7 CFU/ml) was added in each tube. The tubes were incubated at 37°C for 24-48 h. Two control tubes containing the growth medium, saline and the inoculum were maintained for each test batch. The lowest concentration (highest dilution) of the extract that produced no visible microbial growth (no turbidity) when compared with the control tubes were regarded as MIC.

Candida parapsilosis [2] = assay: MIC determination, micro-dilution method; details: Lodderomyces parapsilosis, read-out: Minimum Inhibitory Concentration
Excerpt: as §1, §2

Candida glabrata [3] = assay: MIC determination, micro-dilution method; details: Nakaseomyces glabratus, read-out: Minimum Inhibitory Concentration
Excerpt: as §1, §2

Candida albicans [4] = assay: In-vitro activity in combination with Coe-Comfort tissue conditioner, CFU count; details: for No. colony-forming units (CPU): Candida albicans, mixed with Coe-Comfort
Protocol: The Coe-Comfort tissue conditioner was mixed according to the proportions indicated by the manufacturers. In detail, Coe-comfort™ tissue conditioner is formed by dispensing 5 ml of Coe-comfort liquid into a disposable mixing cup. The red measure level is filled with about 6 g of Coe-comfort powder and is then slowly added to the liquid. The obtained mixture is blended for 30 seconds and setted aside for approximately one minute until it flows sluggishly from a spatula. Using less liquid gives a thicker, faster setting mix and vice versa. […] The extract and isolated compound/conditioner mixture was homogenized in a sterile glass beaker for 30 seconds. Immediately afterwards, the conditioning powder was added and mixed for 40 seconds and then poured onto a Petri plate. Once the mixture solidified, the surface was covered with 4 ml of Sabouraud agar, and after 30 minutes, inoculated with 20 µl of an appropriate dilution of Candida. The plates were incubated at 37°C for 24 hours and then the CFUs were counted. The experiment was performed in triplicate. For the conditioner Coe-Comfort, the control was unmodified conditioner.

Candida tropicalis [5] = assay: Antimicrobial activity, well diffusion method; details: 5mg/ml of sample around well (6 mm), mean ± Standard deviation
Excerpt: (§3) Mouth microbial representatives including unicellular fungi; Candida albicans (RCMB 05382), Candida glabrata (RCMBA 05386), Candida parapsilosis (RCMBA 06002), Candida tropicalis (RCMB 05384), Gram-positive bacteria; Lactobacillus acidophilus (RCMBA 4267), Streptococcus gordonii (RCMBA 2004), Streptococcus mutans (RCMBA 4131), and Gram-negative bacteria; Pseudomonas aeruginosa (RCMBA 1002) were obtained from the Regional Center for Mycology and Biotechnology (RCMB), Al-Azhar University, Cairo, Egypt, as test organisms. Antimicrobial activity was determined by the well diffusion method. Petri plates contained 20 ml of Nutrient (for bacteria) or Malt extract (for fungi). Agar medium were seeded with 1-3 day cultures of microbial inoculums (1-2 X 10^7 CFU/ml). […] The assessment of antimicrobial activity was based on measurement of the diameter of the inhibition zone formed around the well.

Candida albicans [6] = assay: Antimicrobial activity, well diffusion method; details: 5mg/ml of sample around well (6 mm), mean ± Standard deviation
Excerpt: as §3

Candida parapsilosis [7] = assay: Antimicrobial activity, well diffusion method; details: 5mg/ml of sample around well (6 mm), mean ± Standard deviation
Excerpt: as §3

Candida glabrata [8] = assay: Antimicrobial activity, well diffusion method; details: 5mg/ml of sample around well (6 mm), mean ± Standard deviation
Excerpt: as §3

- MIC (Candida tropicalis [1]): 0.12 µg/mL (≈ 0.13 µM)
- MIC (Candida parapsilosis [2]): 0.49 µg/mL (≈ 0.53 µM)
- MIC (Candida glabrata [3]): 1.95 µg/mL (≈ 2.11 µM)
SMILES: C[C@@H]1[C@H](O)[C@@H](C)/C=C/C=C/C=C/C=C/C=C/C=C/C=C/[C@H](O[C@@H]2O[C@H](C)[C@@H](O)[C@H](N)[C@@H]2O)C[C@@H]2O[C@](O)(C[C@@H](O)C[C@@H](O)[C@H](O)CC[C@@H](O)C[C@@H](O)CC(=O)O[C@H]1C)C[C@H](O)[C@H]2C(=O)O [Amphotericin B, reference compound]
- concentration giving total growth inhibition (Candida albicans [4]; C. albicans, in combination with Coe-comfort tissue conditioner): 7.81 µg/mL
- No. colony-forming units (CPU) (Candida albicans [4]; concentration 000.49 µg/ml): 9.1 x 10^4
- No. colony-forming units (CPU) (Candida albicans [4]; concentration 000.98 µg/ml): 8.9 x 10^4
- No. colony-forming units (CPU) (Candida albicans [4]; concentration 001.95 µg/ml): 9.3 x 10^3
- No. colony-forming units (CPU) (Candida albicans [4]; concentration 003.90 µg/ml): 8.1 x 10^2
- No. colony-forming units (CPU) (Candida albicans [4]; concentration 007.81 µg/ml): 00.00
- No. colony-forming units (CPU) (Candida albicans [4]; concentration 015.63 µg/ml): 00.00
- No. colony-forming units (CPU) (Candida albicans [4]; concentration 031.25 µg/ml): 00.00
- No. colony-forming units (CPU) (Candida albicans [4]; concentration 062.50 µg/ml): 00.00
- Diameter of inhibition zone (Candida tropicalis [5]): 24.6± 0.27 mm
- Diameter of inhibition zone (Candida albicans [6]): 21.3± 0.14 mm
- Diameter of inhibition zone (Candida parapsilosis [7]): 23.2 ± 0.53 mm
- Diameter of inhibition zone (Candida glabrata [8]): 20.4± 0.87 mm

From EP2923697B1, “Extract and novel isolated compound from Aspergillus terreus for treatment of mouth microbial infections” (King Saud University, priority 2014, dated 2015)
